1 compound from patent US20090318492A1, “INDOLE COMPOUNDS HAVING C4-ACIDIC SUBSTITUENTS AND USE THEREOF AS PHOSPHOLIPASE-A2 INHIBITORS” (priority 2005, published 2009) can be followed below.

The target in assay [1] is T1, Porcine group 1B phospholipase A2 (pps PLA2) (Sus scrofa, UniProt P00592).
T1 construct: purchased
Put plainly: Example 8 fluorimetric PLA2 inhibition assay (PPyrPM), porcine enzyme. Type of assay: biochemical. From the text:
In this example, a fluorimetric assay procedure was used to evaluate the indole and indole-related compounds of the invention as inhibitors of group 1B phospholipase A2 (PLA2) from human, mouse and porcine. A description of this assay is found in articles: Leslie, C C and Gelb, M H (2004) Methods in Molecular Biology “Assaying phospholipase A2 activity”, 284:229-242; Singer, A G, et al. (2002) Journal of Biological Chemistry “Interfacial kinetic and binding properties of the complete set of human and mouse groups I, II, V, X, and XII secreted phospholipases A2”, 277:48535-48549, which are incorporated herein as references.
In general, this assay used a phosphatidylmethanol substrate with a pyrene fluorophore on the terminal end of the sn-2 fatty acyl chain. […] The effect of a given inhibitor and inhibitor concentration on human, mouse and porcine phospholipase was determined. […]
The following procedure was performed to evaluate the inhibitory potency of the evaluated compounds. • 1. […] The fluorescence was read using an excitation of 342 nm and an emission of 395 nm.
Evaluated compounds were tested in duplicate and their values were averaged to plot the inhibition curve and calculate the IC50. […] The IC50 was calculated using the BioDataFit 1.02 (Four Parameter Model) software package. […]

For assay [2], the system named is LDL receptor knockout mice (B6.129S7-Ldlrtm1Her). The assay can be described thus: Example 11 LDL receptor knockout mice. The note with it: low fat control diet (D12328) with vs without test article. Format: in vivo, mouse. From the text:
Mice lack an enzyme found in humans, cholesterol ester transfer protein (CETP), which is responsible for the transfer of cholesterol from high density lipoproteins (HDL) to the ApoB-containing lipoproteins such as very low density lipoproteins (VLDL) and low density lipoproteins (LDL). Consequently, LDL cholesterol levels in wild-type mice are very low compared to those seen in humans. The low density lipoprotein receptor (LDLR) is involved with clearing LDL and lipoprotein remnants containing apoE. If the LDLR is inactivated, LDL cholesterol levels rise to levels seen in humans. On a normal rodent diet, the LDL cholesterol levels in LDLR deficient mice are elevated compared to wild-type mice. […]
In these studies and the accompanying figures, Diet D12328 from Research Diets is referred to as the “Low Fat” or Control diet, while Diet D12079B from Research Diets is referred to as the “Western” diet. […] The Test Article content was calculated such that ad libitum consumption by the animals would deliver doses (in mg of Test Article per Kg animal weight per day) approximating those listed in Table 6.
Animals were maintained on the diets for twelve weeks. Body weights were recorded weekly. […] The serum was analyzed for total cholesterol, LDL cholesterol, HDL cholesterol, and triglycerides (TG). […]

T1 sequence (P00592 23-146): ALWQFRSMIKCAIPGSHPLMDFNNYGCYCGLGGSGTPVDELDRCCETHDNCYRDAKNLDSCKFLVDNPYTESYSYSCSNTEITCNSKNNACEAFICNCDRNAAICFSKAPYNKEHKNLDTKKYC

The term IC50 denotes the concentration that inhibits the measured activity by half. For `Cc1c(C(=O)C(N)=O)c2c(OCC(=O)NS(=O)(=O)CCCC(=O)O)cccc2n1Cc1ccccc1` [ILY-IV-40, 4-[2-(3-Aminooxalyl-1-benzyl-2-methyl-1H-indol-4-yloxy)-acetylsulfamoyl]-butyric acid], it took 1010 nM to reach half-maximal inhibition in assay [1] (IC50). Moreover, in assay [2], the “effect in animals fed a low fat control diet” value is reported as “No or little effect”.
